Assay results reported in ChEMBL document CHEMBL2434827, “Selective inhibition of heme oxygenase-2 activity by analogs of 1-(4-chlorobenzyl)-2-(pyrrolidin-1-ylmethyl)-1H-benzimidazole (clemizole): Exploration of the effects of substituents at the N-1 position” (Bioorg Med Chem, 2013).

Key:
Rattus norvegicus = species on record: Rattus norvegicus; assay: Selectivity index, ratio of IC50 for HO-1 in Sprague-Dawley rat spleen microsomal fractions to IC50 for HO-2 in Sprague-Dawley rat brain microsomal fractions; type: microsomes; details: Microsome
Heme oxygenase 2 = biological target: T1, Heme oxygenase 2 (Rattus norvegicus, UniProt P23711); assay: Inhibition of HO-2 in Sprague-Dawley rat brain microsomal fractions assessed as carbon monoxide formation from methemalbumin after 10 mins by gas chromatography analysis; type: microsomes
T1 sequence (P23711 whole entry): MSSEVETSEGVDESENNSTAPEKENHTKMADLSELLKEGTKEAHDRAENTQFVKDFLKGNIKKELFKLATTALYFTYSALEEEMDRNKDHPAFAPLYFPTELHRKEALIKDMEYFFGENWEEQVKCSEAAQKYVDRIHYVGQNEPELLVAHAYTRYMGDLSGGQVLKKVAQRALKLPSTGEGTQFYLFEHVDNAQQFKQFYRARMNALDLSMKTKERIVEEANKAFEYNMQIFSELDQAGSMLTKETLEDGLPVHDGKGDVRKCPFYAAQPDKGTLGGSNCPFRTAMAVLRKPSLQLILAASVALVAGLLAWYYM

Heme oxygenase 1 = biological target: T2, Heme oxygenase 1 (Rattus norvegicus, UniProt P06762); assay: Inhibition of HO-1 in Sprague-Dawley rat spleen microsomal fractions assessed as carbon monoxide formation from methemalbumin after 10 mins by gas chromatography analysis; type: microsomes, Microsome
T2 sequence (P06762 whole entry): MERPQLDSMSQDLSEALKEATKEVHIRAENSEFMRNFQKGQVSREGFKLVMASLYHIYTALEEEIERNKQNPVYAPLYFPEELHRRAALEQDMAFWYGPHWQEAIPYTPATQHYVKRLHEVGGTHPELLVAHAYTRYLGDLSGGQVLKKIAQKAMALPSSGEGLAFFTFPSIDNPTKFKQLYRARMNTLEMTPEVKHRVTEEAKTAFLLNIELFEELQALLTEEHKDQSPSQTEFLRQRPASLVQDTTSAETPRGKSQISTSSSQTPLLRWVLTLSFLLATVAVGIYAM

SMILES | Ratio IC50 (Rattus norvegicus) | IC50 (Heme oxygenase 2) | IC50 (Heme oxygenase 1)
CSc1ccc(Cn2c(CN3CCCC3)nc3ccccc32)cc1 | > 6 | 15 µM | > 100 µM
Cc1ccccc1Cn1c(CN2CCCC2)nc2ccccc21 | 42 | 1.8 µM | 76 µM
Cc1ccc(Cn2c(CN3CCCC3)nc3ccccc32)cc1 | > 20 | 5 µM | > 100 µM
N#Cc1ccccc1Cn1c(CN2CCCC2)nc2ccccc21 | > 25 | 4 µM | > 100 µM
c1ccc2c(c1)nc(CN1CCCC1)n2CC1CCCCC1 | > 16 | 6 µM | > 100 µM
CCCn1c(CN2CCCC2)nc2ccccc21 | > 3 | 27 µM | > 100 µM
Clc1cccc(Cn2c(CN3CCCC3)nc3ccccc32)c1 | > 60 | 1.65 µM | > 100 µM
Ic1ccc(Cn2c(CN3CCCC3)nc3ccccc32)cc1 | > 13 | 7.6 µM | > 100 µM
c1ccc(OCCn2c(CN3CCCC3)nc3ccccc32)cc1 | – | > 100 µM | > 100 µM
Clc1ccc(Cl)c(Cn2c(CN3CCCC3)nc3ccccc32)c1 | 24 | 4 µM | 96 µM
c1ccc2[nH]c(CN3CCCC3)nc2c1 | – | > 100 µM | > 100 µM
Clc1ccccc1Cn1c(CN2CCCC2)nc2ccccc21 | > 20 | 4.8 µM | > 100 µM
c1ccc(COc2ccc(Cn3c(CN4CCCC4)nc4ccccc43)cc2)cc1 | > 1.5 | 63 µM | > 100 µM
Clc1ccc(Cn2c(CN3CCCC3)nc3ccccc32)cc1Cl | > 5 | 17 µM | > 100 µM
O=[N+]([O-])c1ccc(Cn2c(CN3CCCC3)nc3ccccc32)cc1 | > 3 | 27 µM | > 100 µM
Cc1cccc(Cn2c(CN3CCCC3)nc3ccccc32)c1 | > 20 | 5 µM | > 100 µM
O=[N+]([O-])c1cccc(Cn2c(CN3CCCC3)nc3ccccc32)c1 | > 76 | 1.3 µM | > 100 µM
Clc1cc(Cl)cc(Cn2c(CN3CCCC3)nc3ccccc32)c1 | > 47 | 2.1 µM | > 100 µM

SMILES | Ratio IC50 (Rattus norvegicus) | IC50 (Heme oxygenase 2) | IC50 (Heme oxygenase 1)
Brc1ccc(Cn2c(CN3CCCC3)nc3ccccc32)cc1 | > 38 | 2.6 µM | > 100 µM
N#Cc1cccc(Cn2c(CN3CCCC3)nc3ccccc32)c1 | > 6 | 15.8 µM | > 100 µM
c1ccc2cc(Cn3c(CN4CCCC4)nc4ccccc43)ccc2c1 | > 20 | 5 µM | > 100 µM
Clc1ccc(Cn2c(CN3CCCC3)nc3ccccc32)cc1 | > 29 | 3.4 µM | > 100 µM
CC(C)c1ccc(Cn2c(CN3CCCC3)nc3ccccc32)cc1 | > 1.8 | 55 µM | > 100 µM
COc1ccc(Cn2c(CN3CCCC3)nc3ccccc32)cc1 | > 5 | 18 µM | > 100 µM
Clc1ccc(Cn2c(CN3CCCC3)nc3ccccc32)c(Cl)c1 | 10 | 6.1 µM | 62 µM
c1ccc(Cn2c(CN3CCCC3)nc3ccccc32)cc1 | > 32 | 3.1 µM | > 100 µM
Clc1cccc(Cl)c1Cn1c(CN2CCCC2)nc2ccccc21 | > 10 | 9.2 µM | > 100 µM
FC(F)(F)c1ccc(Cn2c(CN3CCCC3)nc3ccccc32)cc1 | > 6.4 | 15.6 µM | > 100 µM
c1ccc(C(c2ccccc2)n2c(CN3CCCC3)nc3ccccc32)cc1 | > 24 | 4.1 µM | > 100 µM
Fc1ccc(Cn2c(CN3CCCC3)nc3ccccc32)cc1 | > 50 | 2 µM | > 100 µM
O=[N+]([O-])c1ccccc1Cn1c(CN2CCCC2)nc2ccccc21 | > 28 | 3.5 µM | > 100 µM
Clc1cccc(Cn2c(CN3CCCC3)nc3ccccc32)c1Cl | > 6 | 14.7 µM | > 100 µM
Brc1ccccc1Cn1c(CN2CCCC2)nc2ccccc21 | 26 | 1.6 µM | 42 µM
c1ccc(CCn2c(CN3CCCC3)nc3ccccc32)cc1 | > 37 | 2.7 µM | > 100 µM
N#Cc1ccc(Cn2c(CN3CCCC3)nc3ccccc32)cc1 | > 9 | 11 µM | > 100 µM
Brc1cccc(Cn2c(CN3CCCC3)nc3ccccc32)c1 | > 66 | 1.5 µM | > 100 µM
